{"source": "patent US11510964B2", "about": "“Macrocyclic peptides to decrease c-Myc protein levels and reduce cancer cell growth” (University of Kansas, priority 2017, dated 2022)", "key": {"HEK cells": {"system": "HEK cells", "assay": "Cell proliferation assay (WST-1)", "format": "cell-based, human", "protocol": "Human prostate cancer PC-3 cells were cultured and maintained in EMEM (ATCC), non-prostate HEK (human embryonic kidney) cells were cultured in DMEM, human prostate cancer DU145, LNCaP, 22Rv1 cells were cultured in RPMI 1640 (ATCC), and normal BPH-1 prostate cells and prostate cancer C4-2 cell line were cultured in RPMI 1640 (ATCC), all containing 10% fetal bovine serum (Atlanta Biologicals) and 1% penicillin/streptomycin (Invitrogen). Cells were grown at 37° C. in humidified air with 5% CO2 and passaged every fourth to fifth day following trypsinization with trypsin/EDTA (Invitrogen).^16\nPC-3, LNCaP, DU 145, 22Rv1, C4-2, BPH-1, and HEK cells were grown to a density of 2000 cells/well in 96 well plates and treated with [D-Trp]CJ-15,208 or other peptides for 24-72 h in duplicate. Media containing [D-Trp]CJ-15,208 was changed every 24 h. The proliferation of treated cells was determined using the cell proliferation reagent WST-1 (Roche) per the manufacturer's instructions and compared to […] control cells in 1% DMSO in media. After treatment with compound 10 μL of the reagent was added to the well in 100 μL culture media, and the cells incubated at 37° C. for 30 min. The absorbance of the media in each well was measured at […] using a plate reader (BioTek). The percentage cell proliferation was normalized to vehicle treated control cells calculated as: (mean absorbance of sample/mean absorbance of control cells)×100.^38\n(§1) Each experiment was performed in triplicate unless otherwise stated in the figure legend. GraphPad Prism 5 was used to determine IC50 values. Data represent the mean value+/−SEM. Compound vs. vehicle treated cells in the cell cycle phase and apoptosis experiments (FIGS. 5-8) were compared using the student's t-test, with a two-tailed, unpaired method, using the Prism software. The effects of compound vs. vehicle treatment on protein levels (FIG. 10) were evaluated by one-way ANOVA with Dunnett's test for multiple comparisons."}, "BPH-1 cells": {"system": "BPH-1 cells", "assay": "Cell viability assay (Trypan Blue)", "format": "cell-based", "conditions": "BPH-1 normal prostate cells, 1-40 μM, 48 h", "protocol": "The viability of prostate cancer cells was determined using Trypan Blue (Sigma) per the manufacturer's instructions. Cells were grown in 6 well plates to a density of 1×10^5 cells/well to 75% confluency and treated with compound in 0.5% DMSO at the indicated concentrations for 24-72 h, with 0.5% DMSO as the vehicle control. After treatment, the cell media from each well was collected. The cells were washed with phosphate buffer saline (PBS), trypsinized, and collected. All of the cells, combined media, and washes were centrifuged at 250×g for 5 min. The supernatant was discarded, and the cell pellet was resuspended in 500 μL PBS. Trypan blue (10 μL) was added to 100 μL of resuspended cells, and the solution incubated for 10 min. The cell number in 10 μL was then counted using a hematocytometer. Viable cells (not stained) were distinguished from dead cells (colored blue) and the % viable cells calculated as follows: [(number of white cells)/(number of total cells (white+blue))]*100 and compared with untreated cells.^16"}, "PC-3 cells": {"system": "PC-3 cells", "assay": "Annexin V-APC/PI apoptosis assay", "format": "cell-based, human", "conditions": "PC-3, 10 μM", "protocol": "(§2) The extent of apoptosis was analyzed by detecting surface expression of phosphatidylserine on apoptotic cells using an Annexin V-APC/PI dual staining apoptosis detection kit I (BD Biosciences) according to the manufacturer's protocol. Following treatment of PC-3 cells with 10 μM [D-Trp]CJ-15,208 or vehicle for 24 h or 48 h, the cells were collected, washed twice with cold PBS, and resuspended in 1× binding buffer at a concentration of 1×10^6 cells/mL. Cell suspension (100 μL) was transferred to a 5 ml culture tube, and 5 μL of Annexin V-APC and 25 μL of PI (50 μg/mL) were added. The cells were incubated for 15 min at room temperature in the dark with gentle vortexing, 400 μL of 1× binding buffer was then added to each sample, and the samples were analyzed using a Beckman-Coulter MoFlo XDP flow cytometer within one hour. The number of viable, apoptotic and necrotic cells were quantified using FlowJo v10.0.7. The apoptosis fraction (%) was calculated as (number of apoptotic cells/the number of total cells observed)×100%.^38\nas §1"}, "[1]": {"system": "siRNA-transfected PC-3 cells", "assay": "c-Myc knockdown, Annexin V-APC/PI apoptosis assay", "format": "cell-based, human", "conditions": "10 μM, 48 h", "protocol": "as §2\nPC-3 cells were seeded at a density of 2×10^6 cells in 10 cm plates and grown to 75-85% confluence in EMEM supplemented with 10% FBS and penicillin/streptomycin. […] Samples were analyzed using a BD FACSCanto-II cell analyzer and quantified in FlowJo v10.2. […]"}, "[2]": {"conditions": "mice, dose of 60 mg/kg; cited from earlier work"}}, "note": "“Also recorded” adds a separate entry of the source. Non-standard residues stand in square brackets, D forms with d. Residues, ends and D or L forms follow the SMILES beside them."}
{"smiles": "O=C1N[C@H](Cc2c[nH]c3ccccc23)C(=O)N[C@@H](Cc2ccccc2)C(=O)N2CCC[C@@H]2C(=O)N[C@H]1Cc1ccccc1", "note": "[[D-Trp]CJ-15,208, cyclo[Phe-D-Pro-Phe-D-Trp]] (cyclo(F[dP]F[dW]))", "values": [{"measurement": "IC50, cell growth", "setting": "HEK cells; 48 h", "value": "No effect"}, {"measurement": "IC50, cell growth", "setting": "HEK cells; 72 h", "value": "No effect"}, {"measurement": "effect on cell proliferation / cytotoxicity", "setting": "HEK cells; time not stated", "value": "No cytotoxicity was observed; also recorded: did not prevent cell proliferation"}, {"measurement": "cell death (Trypan blue)", "setting": "BPH-1 cells", "value": "no evidence of cell death"}, {"measurement": "number of cells in early or late apoptosis", "setting": "PC-3 cells; 24 h", "value": "No significant change"}, {"measurement": "increase of number of cells in early apoptosis vs. vehicle", "setting": "PC-3 cells; 48 h", "value": 10, "unit": "fold"}, {"measurement": "increase of number of cells in late apoptosis vs. vehicle", "setting": "PC-3 cells; 48 h", "value": 3, "unit": "fold"}, {"measurement": "early apoptosis", "setting": "[1]; PC-3 transfected with nontargeting siRNA", "value": "significantly increased early apoptosis"}, {"measurement": "early apoptosis", "setting": "[1]; PC-3 transfected with siRNA against c-Myc", "value": "did not significantly affect"}, {"measurement": "toxicity", "setting": "[2]", "value": "no evidence of toxicity"}]}
